Data as given in ChEMBL document CHEMBL5291721, “A preclinical secondary pharmacology resource illuminates target-adverse drug reaction associations of marketed drugs” (Nat Commun, 2023).

What was measured:
[1] = molecular target: Beta-2 adrenergic receptor (Homo sapiens, UniProt P07550); type: functional, cell-based
[2] = molecular target: Vasopressin V1a receptor (Homo sapiens, UniProt P37288)
[3] = molecular target: T1, Muscarinic acetylcholine receptor M2 (Homo sapiens, UniProt P08172); type: functional, cell-based
T1 sequence (P08172 whole entry): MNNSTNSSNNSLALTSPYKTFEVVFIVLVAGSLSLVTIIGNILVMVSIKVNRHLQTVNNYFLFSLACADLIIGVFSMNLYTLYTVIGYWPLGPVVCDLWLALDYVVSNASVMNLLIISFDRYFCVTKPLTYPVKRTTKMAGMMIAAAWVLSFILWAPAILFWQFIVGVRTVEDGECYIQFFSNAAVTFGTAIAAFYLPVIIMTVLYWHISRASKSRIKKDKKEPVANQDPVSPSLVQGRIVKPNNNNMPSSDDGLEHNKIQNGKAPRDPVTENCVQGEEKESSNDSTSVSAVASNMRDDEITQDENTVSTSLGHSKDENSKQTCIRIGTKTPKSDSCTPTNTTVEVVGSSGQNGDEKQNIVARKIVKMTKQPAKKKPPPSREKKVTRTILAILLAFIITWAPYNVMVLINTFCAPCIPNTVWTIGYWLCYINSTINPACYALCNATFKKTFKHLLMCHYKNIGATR

[4] = molecular target: Cannabinoid receptor 1 (Homo sapiens, UniProt P21554); type: functional, cell-based
[5] = molecular target: Mu-type opioid receptor (Homo sapiens, UniProt P35372); test: biochemical; type: functional
[6] = molecular target: T2, Progesterone receptor (Homo sapiens, UniProt P06401); type: functional
T2 sequence (P06401 whole entry): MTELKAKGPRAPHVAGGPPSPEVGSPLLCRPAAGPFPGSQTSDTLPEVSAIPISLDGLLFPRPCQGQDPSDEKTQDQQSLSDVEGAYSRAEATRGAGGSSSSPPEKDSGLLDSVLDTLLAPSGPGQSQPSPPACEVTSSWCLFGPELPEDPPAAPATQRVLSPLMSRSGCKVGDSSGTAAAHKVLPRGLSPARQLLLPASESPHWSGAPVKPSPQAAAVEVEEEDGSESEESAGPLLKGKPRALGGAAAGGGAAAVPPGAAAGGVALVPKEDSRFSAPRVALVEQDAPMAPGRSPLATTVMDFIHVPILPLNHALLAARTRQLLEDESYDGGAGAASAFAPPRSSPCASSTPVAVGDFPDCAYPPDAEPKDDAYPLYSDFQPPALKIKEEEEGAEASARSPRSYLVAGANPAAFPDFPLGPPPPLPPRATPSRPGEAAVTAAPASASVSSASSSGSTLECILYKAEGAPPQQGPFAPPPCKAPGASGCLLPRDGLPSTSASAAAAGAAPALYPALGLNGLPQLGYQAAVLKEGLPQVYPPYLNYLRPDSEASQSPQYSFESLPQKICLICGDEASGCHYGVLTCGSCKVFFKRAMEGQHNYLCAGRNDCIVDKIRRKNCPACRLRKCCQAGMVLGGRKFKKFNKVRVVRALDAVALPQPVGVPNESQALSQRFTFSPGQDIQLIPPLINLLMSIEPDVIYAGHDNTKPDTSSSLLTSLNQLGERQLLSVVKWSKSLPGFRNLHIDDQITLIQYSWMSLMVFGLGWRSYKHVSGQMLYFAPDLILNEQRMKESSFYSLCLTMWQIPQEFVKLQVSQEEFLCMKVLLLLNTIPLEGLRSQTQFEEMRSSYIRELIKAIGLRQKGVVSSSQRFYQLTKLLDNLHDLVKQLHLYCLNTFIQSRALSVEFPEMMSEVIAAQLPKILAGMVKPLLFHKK

[7] = molecular target: T3, Alpha-1A adrenergic receptor (Homo sapiens, UniProt P35348)
T3 sequence (P35348 whole entry): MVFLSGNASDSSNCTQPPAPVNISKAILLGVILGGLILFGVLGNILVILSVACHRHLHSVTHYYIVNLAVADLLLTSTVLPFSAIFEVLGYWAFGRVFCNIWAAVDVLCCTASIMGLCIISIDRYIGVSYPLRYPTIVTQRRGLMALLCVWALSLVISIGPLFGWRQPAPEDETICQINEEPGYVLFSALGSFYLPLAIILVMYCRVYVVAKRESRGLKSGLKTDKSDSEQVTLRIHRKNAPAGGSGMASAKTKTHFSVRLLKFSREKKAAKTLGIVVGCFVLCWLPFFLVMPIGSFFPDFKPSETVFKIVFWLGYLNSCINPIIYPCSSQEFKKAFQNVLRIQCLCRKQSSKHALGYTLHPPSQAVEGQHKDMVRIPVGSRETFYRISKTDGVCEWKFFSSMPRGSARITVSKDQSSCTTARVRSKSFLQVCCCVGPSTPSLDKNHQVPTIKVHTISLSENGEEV

[8] = molecular target: Voltage-dependent L-type calcium channel subunit alpha-1C (Rattus norvegicus, UniProt P22002); type: functional
[9] = molecular target: Acetylcholinesterase (Homo sapiens, UniProt P22303); type: functional
[10] = molecular target: T3, Alpha-1A adrenergic receptor; type: functional, cell-based
[11] = molecular target: T3, Alpha-1A adrenergic receptor; type: functional, cell-based; remark: listed apart in the source
[12] = molecular target: T4, 5-hydroxytryptamine receptor 1A (Homo sapiens, UniProt P08908)
T4 sequence (P08908 whole entry): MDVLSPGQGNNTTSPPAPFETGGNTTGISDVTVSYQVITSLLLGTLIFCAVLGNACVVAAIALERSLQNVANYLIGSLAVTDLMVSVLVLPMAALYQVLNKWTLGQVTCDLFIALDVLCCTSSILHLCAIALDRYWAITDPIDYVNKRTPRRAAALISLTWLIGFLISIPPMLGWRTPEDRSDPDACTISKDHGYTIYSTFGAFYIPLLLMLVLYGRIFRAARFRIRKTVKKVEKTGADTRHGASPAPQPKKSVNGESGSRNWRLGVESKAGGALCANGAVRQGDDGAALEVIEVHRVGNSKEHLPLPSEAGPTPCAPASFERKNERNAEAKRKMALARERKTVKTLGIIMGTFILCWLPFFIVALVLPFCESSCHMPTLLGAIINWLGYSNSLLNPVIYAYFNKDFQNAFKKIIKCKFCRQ
Also: assay procedure not described here.

Chain of Cannabinoid receptor 1 (P21554 whole entry): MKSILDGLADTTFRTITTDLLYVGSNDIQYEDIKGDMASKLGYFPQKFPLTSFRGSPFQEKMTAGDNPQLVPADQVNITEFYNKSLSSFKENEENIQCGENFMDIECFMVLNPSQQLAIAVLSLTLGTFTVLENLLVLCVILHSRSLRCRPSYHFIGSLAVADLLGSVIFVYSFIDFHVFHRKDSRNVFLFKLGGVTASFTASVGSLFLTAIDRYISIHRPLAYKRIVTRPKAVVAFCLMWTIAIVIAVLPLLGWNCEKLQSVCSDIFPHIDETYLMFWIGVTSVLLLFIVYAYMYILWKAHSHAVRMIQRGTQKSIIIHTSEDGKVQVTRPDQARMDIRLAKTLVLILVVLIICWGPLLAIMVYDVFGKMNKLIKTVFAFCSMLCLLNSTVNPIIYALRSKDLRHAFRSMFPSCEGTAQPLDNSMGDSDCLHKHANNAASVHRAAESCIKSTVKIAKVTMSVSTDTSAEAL
Chain of Voltage-dependent L-type calcium channel subunit alpha-1C (P22002 whole entry): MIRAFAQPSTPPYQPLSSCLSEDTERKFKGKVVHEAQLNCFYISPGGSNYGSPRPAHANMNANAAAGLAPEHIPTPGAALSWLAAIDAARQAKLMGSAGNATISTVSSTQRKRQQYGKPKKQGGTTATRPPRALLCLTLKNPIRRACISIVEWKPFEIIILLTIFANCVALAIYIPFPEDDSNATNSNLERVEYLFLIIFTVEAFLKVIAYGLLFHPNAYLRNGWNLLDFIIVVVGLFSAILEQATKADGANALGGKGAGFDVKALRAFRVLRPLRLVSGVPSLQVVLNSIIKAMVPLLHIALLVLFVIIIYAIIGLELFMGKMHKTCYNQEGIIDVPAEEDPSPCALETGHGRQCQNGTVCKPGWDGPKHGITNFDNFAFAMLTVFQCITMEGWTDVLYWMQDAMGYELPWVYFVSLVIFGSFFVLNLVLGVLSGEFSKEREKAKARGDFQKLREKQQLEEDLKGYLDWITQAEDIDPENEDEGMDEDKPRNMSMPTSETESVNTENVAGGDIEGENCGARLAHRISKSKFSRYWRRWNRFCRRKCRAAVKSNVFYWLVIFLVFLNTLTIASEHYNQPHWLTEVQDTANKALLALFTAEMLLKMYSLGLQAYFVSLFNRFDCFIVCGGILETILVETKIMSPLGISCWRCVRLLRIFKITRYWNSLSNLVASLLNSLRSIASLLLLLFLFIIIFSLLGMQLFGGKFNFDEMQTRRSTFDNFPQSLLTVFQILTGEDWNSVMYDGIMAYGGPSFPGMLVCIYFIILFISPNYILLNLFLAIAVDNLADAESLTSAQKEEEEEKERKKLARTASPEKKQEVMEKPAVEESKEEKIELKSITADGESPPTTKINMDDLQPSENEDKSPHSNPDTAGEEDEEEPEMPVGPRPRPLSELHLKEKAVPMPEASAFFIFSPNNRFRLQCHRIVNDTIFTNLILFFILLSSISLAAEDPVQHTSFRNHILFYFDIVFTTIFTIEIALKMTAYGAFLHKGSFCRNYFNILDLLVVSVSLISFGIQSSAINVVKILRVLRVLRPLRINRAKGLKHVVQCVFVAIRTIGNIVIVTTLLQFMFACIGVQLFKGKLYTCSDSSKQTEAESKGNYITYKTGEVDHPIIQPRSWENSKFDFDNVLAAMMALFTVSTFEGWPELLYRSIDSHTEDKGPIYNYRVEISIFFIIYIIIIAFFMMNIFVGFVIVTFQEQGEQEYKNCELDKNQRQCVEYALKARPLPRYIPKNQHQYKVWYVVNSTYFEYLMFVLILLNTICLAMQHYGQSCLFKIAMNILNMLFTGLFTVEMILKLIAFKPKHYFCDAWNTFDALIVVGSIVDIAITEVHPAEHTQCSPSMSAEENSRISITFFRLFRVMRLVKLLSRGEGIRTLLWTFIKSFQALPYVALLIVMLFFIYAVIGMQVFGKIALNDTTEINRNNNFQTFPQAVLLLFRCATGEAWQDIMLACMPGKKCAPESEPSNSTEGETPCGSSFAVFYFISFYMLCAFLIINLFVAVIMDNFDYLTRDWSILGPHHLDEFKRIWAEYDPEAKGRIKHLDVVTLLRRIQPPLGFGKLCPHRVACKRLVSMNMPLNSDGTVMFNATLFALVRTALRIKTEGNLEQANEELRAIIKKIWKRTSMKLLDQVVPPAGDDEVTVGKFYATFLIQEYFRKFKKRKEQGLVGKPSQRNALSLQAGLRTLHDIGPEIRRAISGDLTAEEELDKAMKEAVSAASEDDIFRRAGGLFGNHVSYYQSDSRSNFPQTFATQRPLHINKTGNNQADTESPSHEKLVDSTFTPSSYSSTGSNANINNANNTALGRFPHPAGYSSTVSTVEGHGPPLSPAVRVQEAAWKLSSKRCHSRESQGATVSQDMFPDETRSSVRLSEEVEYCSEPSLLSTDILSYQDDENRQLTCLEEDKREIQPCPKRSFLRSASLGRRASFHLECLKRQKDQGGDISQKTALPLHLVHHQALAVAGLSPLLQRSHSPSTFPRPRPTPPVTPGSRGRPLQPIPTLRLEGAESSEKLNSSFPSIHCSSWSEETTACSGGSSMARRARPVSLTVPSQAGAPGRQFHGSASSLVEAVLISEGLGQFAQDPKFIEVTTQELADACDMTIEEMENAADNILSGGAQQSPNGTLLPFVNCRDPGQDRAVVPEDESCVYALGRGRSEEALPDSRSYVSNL
Chain of Vasopressin V1a receptor (P37288 whole entry): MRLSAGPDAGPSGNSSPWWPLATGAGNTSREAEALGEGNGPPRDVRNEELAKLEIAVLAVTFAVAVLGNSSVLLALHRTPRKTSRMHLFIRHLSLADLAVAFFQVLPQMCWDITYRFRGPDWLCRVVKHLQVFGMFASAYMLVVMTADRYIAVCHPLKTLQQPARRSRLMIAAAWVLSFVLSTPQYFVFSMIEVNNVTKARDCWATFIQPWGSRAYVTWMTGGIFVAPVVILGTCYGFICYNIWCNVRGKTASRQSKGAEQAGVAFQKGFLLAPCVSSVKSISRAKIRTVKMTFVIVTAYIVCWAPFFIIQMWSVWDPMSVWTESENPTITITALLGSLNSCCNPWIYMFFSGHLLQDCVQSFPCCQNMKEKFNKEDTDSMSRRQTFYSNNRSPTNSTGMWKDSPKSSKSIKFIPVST
Chain of Mu-type opioid receptor (P35372 whole entry): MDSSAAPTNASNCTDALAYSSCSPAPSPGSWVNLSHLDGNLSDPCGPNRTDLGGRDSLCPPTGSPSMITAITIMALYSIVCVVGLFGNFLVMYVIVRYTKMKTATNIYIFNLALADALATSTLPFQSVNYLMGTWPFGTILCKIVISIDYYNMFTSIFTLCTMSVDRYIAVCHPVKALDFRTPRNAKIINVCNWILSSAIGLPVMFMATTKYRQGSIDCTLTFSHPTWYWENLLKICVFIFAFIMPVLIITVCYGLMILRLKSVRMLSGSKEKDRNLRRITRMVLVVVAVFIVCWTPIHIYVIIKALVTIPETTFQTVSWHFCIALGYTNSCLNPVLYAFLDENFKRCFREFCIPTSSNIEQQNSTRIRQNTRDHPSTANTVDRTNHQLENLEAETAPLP
Chain of Beta-2 adrenergic receptor (P07550 whole entry): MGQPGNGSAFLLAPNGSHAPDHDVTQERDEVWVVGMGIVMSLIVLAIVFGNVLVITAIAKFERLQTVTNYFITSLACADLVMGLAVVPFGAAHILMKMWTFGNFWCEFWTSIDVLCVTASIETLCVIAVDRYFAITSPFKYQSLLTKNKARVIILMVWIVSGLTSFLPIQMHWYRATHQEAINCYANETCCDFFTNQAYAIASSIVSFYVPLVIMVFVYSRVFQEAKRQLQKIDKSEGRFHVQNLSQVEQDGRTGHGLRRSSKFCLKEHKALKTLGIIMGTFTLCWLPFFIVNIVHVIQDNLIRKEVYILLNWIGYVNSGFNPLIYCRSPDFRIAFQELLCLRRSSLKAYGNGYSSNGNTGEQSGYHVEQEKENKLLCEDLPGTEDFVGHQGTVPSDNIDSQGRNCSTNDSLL
Chain of Acetylcholinesterase (P22303 whole entry): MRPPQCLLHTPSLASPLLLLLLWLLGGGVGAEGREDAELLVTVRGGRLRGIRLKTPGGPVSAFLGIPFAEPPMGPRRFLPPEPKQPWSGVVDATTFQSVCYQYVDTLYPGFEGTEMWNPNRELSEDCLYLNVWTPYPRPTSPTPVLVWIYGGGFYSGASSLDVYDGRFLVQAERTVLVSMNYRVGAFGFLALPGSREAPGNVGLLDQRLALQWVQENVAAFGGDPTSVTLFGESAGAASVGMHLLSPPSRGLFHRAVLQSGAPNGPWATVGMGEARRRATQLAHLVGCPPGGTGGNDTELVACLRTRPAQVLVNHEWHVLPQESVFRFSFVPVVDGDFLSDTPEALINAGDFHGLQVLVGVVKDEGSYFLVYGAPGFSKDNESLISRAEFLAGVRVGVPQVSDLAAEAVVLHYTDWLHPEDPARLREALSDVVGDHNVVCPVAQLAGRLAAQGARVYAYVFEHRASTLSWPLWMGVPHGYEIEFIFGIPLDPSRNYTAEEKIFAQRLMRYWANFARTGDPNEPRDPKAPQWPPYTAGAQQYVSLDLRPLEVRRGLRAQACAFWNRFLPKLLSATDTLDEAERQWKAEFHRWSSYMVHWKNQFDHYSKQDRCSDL

Structure (SMILES)	AC50 [1]	AC50 [2]	AC50 [3]	AC50 [4]	AC50 [5]	AC50 [6]	AC50 [7]	AC50 [8]	AC50 [9]	AC50 [10]	AC50 [11]	AC50 [12]
CCC(C)C1(CC)C(=O)NC(=O)NC1=O (stereo not given) [BUTABARBITAL]	> 30 µM	> 30 µM	> 30 µM	> 30 µM	> 30 µM	> 30 µM	–	–	–	–	–	–
Oc1ccc2c(c1)CC[C@H](c1ccccc1)[C@@H]2c1ccc(OCCN2CCCC2)cc1 [LASOFOXIFENE]	> 30 µM	> 30 µM	–	> 30 µM	> 30 µM	> 10 µM	–	–	–	–	–	–
C[C@]12CC[C@@H]3c4ccc(O)cc4C[C@@H](CCCCCCCCC[S+]([O-])CCCC(F)(F)C(F)(F)F)[C@H]3[C@@H]1CC[C@@H]2O (stereo not given in full) [FULVESTRANT]	> 30 µM	> 30 µM	> 30 µM	> 30 µM	> 30 µM	3.6 µM	–	–	–	–	–	–
CC(N)C(O)c1ccccc1 (stereo not given) [PHENYLPROPANOLAMINE]	> 30 µM	> 30 µM	> 10 µM	> 30 µM	–	–	> 10 µM	> 10 µM	–	–	–	–
CCCCC(=O)O[C@]1(C(=O)CO)[C@@H](C)C[C@H]2[C@@H]3CCC4=CC(=O)C=C[C@]4(C)[C@@]3(F)[C@@H](O)C[C@@]21C [BETAMETHASONE VALERATE]	> 30 µM	–	> 10 µM	> 30 µM	–	–	> 10 µM	> 10 µM	–	–	–	–
CC(=O)N[C@@H](CS)C(=O)O [ACETYLCYSTEINE]	> 30 µM	> 30 µM	> 30 µM	> 30 µM	> 30 µM	> 30 µM	–	–	–	–	–	–
C/N=C(\NC)NCc1ccccc1 [BETHANIDINE]	> 30 µM	> 30 µM	> 30 µM	> 30 µM	> 30 µM	> 30 µM	–	–	–	–	–	–
CN(C)CCCNc1c2ccccc2nc2cccc([N+](=O)[O-])c12 [NITRACRINE]	> 30 µM	> 30 µM	16 µM	> 30 µM	> 30 µM	> 30 µM	–	> 30 µM	–	–	–	–
CCC(=O)O[C@H]1CC[C@H]2[C@@H]3CCC4=CC(=O)CC[C@]4(C)[C@H]3CC[C@]12C [TESTOSTERONE PROPIONATE]	> 30 µM	> 10 µM	> 10 µM	> 30 µM	–	–	> 10 µM	> 10 µM	–	–	–	–
CNC1=Nc2ccc(Cl)cc2C(c2ccccc2)=[N+]([O-])C1 [CHLORDIAZEPOXIDE]	> 30 µM	–	> 10 µM	–	–	–	> 10 µM	> 10 µM	–	–	–	–
CN1CCC(=C2c3ccccc3CCc3cccnc32)CC1 [AZATADINE]	> 30 µM	> 30 µM	0.08 µM	> 30 µM	–	–	8.64 µM	> 10 µM	–	–	–	–
CCOC(=O)C1=C(C)NC(C)=C(C(=O)OC)C1c1cccc([N+](=O)[O-])c1 (stereo not given) [NITRENDIPINE]	> 30 µM	> 30 µM	> 10 µM	> 30 µM	–	–	> 10 µM	0.0004 µM	–	–	–	–
CC12CC3CC(C)(C1)CC(N)(C3)C2 [MEMANTINE]	> 30 µM	> 30 µM	> 10 µM	> 30 µM	–	–	> 10 µM	> 10 µM	–	–	–	–
CCC(C)C(CC)C(N)=O (stereo not given) [VALNOCTAMIDE]	> 30 µM	> 30 µM	> 30 µM	> 30 µM	> 30 µM	> 30 µM	–	–	–	–	–	–
CCCC(CCC)C(N)=O [VALPROMIDE]	> 30 µM	–	> 10 µM	> 30 µM	–	–	> 10 µM	> 10 µM	–	–	–	–
CN1CCN(C2=Nc3ccccc3Oc3ccc(Cl)cc32)CC1 [LOXAPINE]	> 30 µM	> 10 µM	–	> 30 µM	> 30 µM	–	–	> 10 µM	> 30 µM	> 30 µM	0.0734 µM	3.95 µM
CCOC(=O)C1=C[C@]2(CC)CCCN3CCc4c(n1c1ccccc41)[C@@H]32 [VINPOCETINE]	> 30 µM	> 30 µM	–	> 30 µM	> 30 µM	> 30 µM	–	–	–	–	–	–
